Patent publication US20050085509A1, “Piperidin-2-one derivative compounds and drugs containing these compounds as the active ingredient” (priority 2001, published 2005)

Tests used:
[1] = target: T1, recombinant human p38αMAP kinase (Homo sapiens, UniProt Q16539); experiment: p38αMAP kinase inhibitory activity (2): ATF-2 phosphorylation, Alpha Screen; type: biochemical; conditions: 30° C., 30 minutes, read-out: IC50, inhibition of ATF-2 phosphorylation by p38αMAP kinase
T1 construct: purchased Upstate Biotechnology Inc. #14-251
Procedure: (2) Study of p38αMAP Kinase Inhibitory Activity (2)
Using activation transcription factor 2 (hereinafter abbreviated as ATF-2) which is a substrate of p38αMAP kinase, the inhibition effect of the compound of the present invention on the ATF-2 phosphorylation by recombinant human p38αMAP kinase was examined.
A kinase buffer (25 mM Tris-HCl (pH 7.5), 5 mM β-glycerophosphate, 2 mM dithiothreitol, 0.1 mM Na3VO4, 10 mM MgCl2) containing recombinant human p38αMAP kinase (Upstate Biotechnology #14-251) (5 μL) was added to a 384-well plate for fluorescence measurement ([…] protein/well). […] Separately, 5 μL of a substrate mixture prepared with the kinase buffer (biotinylated ATF-2 (5 μg/mL) (Upstate Biotechnology, #14-432), adenosine triphosphate (90 μmol/L) (Sigma #FL-AAS) and anti-phosphorylated ATF-2 antibody (20-fold dilution) (Cell Signaling Technology, #9221L) were added and an enzyme reaction was carried out at 30° C. for 30 minutes. After completion of the reaction, the enzyme reaction was terminated by adding 5 μL of Hepes buffer containing 0.25% BSA and 100 mM EDTA. The amount of complex of phosphorylated ATF2 and anti-phosphorylated ATF2 generated by this reaction was measured using Alpha Screen™ Rabbit Detection kit (Packard #6760607). […]

THP-1 = experiment: Inhibition activity against TNF-α production using human cell line THP-1; type: cell-based; conditions: 1.5 h, THP-1 cells, LPS stimulation, 90 minutes, ELISA, read-out: IC50, inhibition of LPS-induced TNF-α production
Procedure: (4) Inhibition Activity Against TNF-α Production Using Human Cell Line
Using THP-1, which is a human monocyte cell line, the inhibition effect of the compound of the present invention on the TNF-α production induced by lipopolyliposaccharide (LPS) stimulation was studied.
Each 50 μL of lipopolyliposaccharide (LPS; Difco #3120-25-0) prepared at the concentration of 40 ng/mL using RPMI-1640 medium containing 10% fetal calf serum (hereinafter abbreviated as RPMI-1640) and RPMI-1640 containing the compound of the present invention was added to a 96-well plate for tissue culture. […] After completion of the reaction, the culture medium supernatant was recovered and the amount of produced TNF-α was measured using an ELISA kit (Invitrogen, #850090192).
The inhibition activity against TNF-α production, which is the effect of the compound of the present invention, was calculated as an inhibition rate (%) by the following formula. Inhibition rate (%)={(AC−AX)/(AC−AB)}×100 • AB: Measured value without LPS induction • AC: Measured value with LPS induction in the absence of the compound • AX: Measured value with LPS induction in the presence of the compound

[2] = target: T1, recombinant human p38αMAP kinase; experiment: p38αMAP kinase inhibitory activity (1): ATF-2 phosphorylation, Western blotting; type: biochemical; conditions: Western blotting with anti-phosphorylated ATF-2 antibody; FIG. 1
Description: (1) Study of p38αMAP Kinase Inhibitory Activity (1)
Using activation transcription factor 2 (activating transcription factor 2; ATF-2, Cell Signaling Inc., #9224L) which is a substrate of p38αMAP kinase, the inhibitory effect of the compound of the present invention on the ATF-2 phosphorylation by recombinant human p38αMAP kinase (Upstate Biotechnology Inc., #14-251) was studied by the Western-blotting method using the anti-phosphorylated ATF-2 antibody (Cell Signaling Inc., #9221L). In other words, 10 μL of a solution of the compound of the present invention at a known concentration was added to 10 μL of the kinase buffer (Cell Signaling Inc., #9802) containing recombinant human p38αMAP kinase (100 ng/tube) and pre-incubated for 10 minutes at 30° C. Then, 20 μL of adenosine triphosphate (ATP)/ATF-2 mixture was added and after the incubation of 30 minutes at 30° C., 20 μL of SDS buffer (187.5 mM Tris/6% SDS/30% glycerol/150 mM DTT/0.03% bromophenol blue) was added to stop the enzyme reaction. After heating at 100° C. for 5 minutes, mixing and centrifugation were conducted. After re-mixing, 20 μL of the sample was subjected to an electrophoresis on SDS-PAGE gel (10-20%, Daiichi Pure Chemicals Co., Ltd.). […] After washing with TBS-T solution, phosphorylated ATF-2 was detected using Western blotting detection reagent (Amersham Pharmacia Biotech).

T1 sequence (Q16539 whole entry): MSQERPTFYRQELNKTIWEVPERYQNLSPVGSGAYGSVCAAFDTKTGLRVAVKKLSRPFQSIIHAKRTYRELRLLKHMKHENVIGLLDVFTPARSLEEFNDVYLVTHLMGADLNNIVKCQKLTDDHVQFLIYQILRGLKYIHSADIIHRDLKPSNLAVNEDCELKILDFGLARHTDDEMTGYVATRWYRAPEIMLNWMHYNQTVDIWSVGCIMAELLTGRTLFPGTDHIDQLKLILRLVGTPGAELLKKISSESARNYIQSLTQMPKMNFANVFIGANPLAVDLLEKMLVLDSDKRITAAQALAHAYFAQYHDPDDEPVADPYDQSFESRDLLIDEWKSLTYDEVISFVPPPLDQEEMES

With `O=C1CCC(Cc2ccc(F)cc2F)CN1c1c(Cl)cccc1Cl` (stereo not drawn) [Example 1 (1), 1-(2,6-dichlorophenyl)-5-(2,4-difluorobenzyl)piperidin-2-one] the IC50 [1] was 42.9 nM, the IC50 (THP-1) was 14.5 nM and the “concentration at which ATF-2 phosphorylation by p38αMAP kinase was inhibited” value [2] was ≥ 0.3 µM.
